Reference: article PMC3177607 (Bioorganic & medicinal chemistry letters, 2008)
Read-outs that look alike come from different tables or passages of the source.

Experiments:
D2 [1] = target: T1, D2 (Homo sapiens, UniProt P14416); experiment: D2 inhibition; format: cell-based
M1 = target: T2, M1 (Rattus norvegicus, UniProt P08482); experiment: 10 μM single point M1 activation screen; format: cell-based; conditions: in triplicate, relative to ACh, CCh and TBPB controls
T2 sequence (P08482 1-460): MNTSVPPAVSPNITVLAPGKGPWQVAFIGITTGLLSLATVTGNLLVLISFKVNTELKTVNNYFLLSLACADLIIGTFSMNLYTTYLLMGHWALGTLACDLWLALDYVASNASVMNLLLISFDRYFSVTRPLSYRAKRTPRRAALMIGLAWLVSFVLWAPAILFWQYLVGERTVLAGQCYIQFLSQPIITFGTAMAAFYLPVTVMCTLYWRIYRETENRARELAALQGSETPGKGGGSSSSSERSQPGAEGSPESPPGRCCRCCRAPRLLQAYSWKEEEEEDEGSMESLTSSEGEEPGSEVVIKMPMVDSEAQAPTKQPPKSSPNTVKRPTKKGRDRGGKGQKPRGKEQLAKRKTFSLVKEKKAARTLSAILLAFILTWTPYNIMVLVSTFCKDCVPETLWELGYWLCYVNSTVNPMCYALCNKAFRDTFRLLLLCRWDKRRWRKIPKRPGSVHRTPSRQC

M2 = target: T3, M2 (Homo sapiens, UniProt P08172); experiment: M2 functional activation; format: cell-based
T3 sequence (P08172 1-466): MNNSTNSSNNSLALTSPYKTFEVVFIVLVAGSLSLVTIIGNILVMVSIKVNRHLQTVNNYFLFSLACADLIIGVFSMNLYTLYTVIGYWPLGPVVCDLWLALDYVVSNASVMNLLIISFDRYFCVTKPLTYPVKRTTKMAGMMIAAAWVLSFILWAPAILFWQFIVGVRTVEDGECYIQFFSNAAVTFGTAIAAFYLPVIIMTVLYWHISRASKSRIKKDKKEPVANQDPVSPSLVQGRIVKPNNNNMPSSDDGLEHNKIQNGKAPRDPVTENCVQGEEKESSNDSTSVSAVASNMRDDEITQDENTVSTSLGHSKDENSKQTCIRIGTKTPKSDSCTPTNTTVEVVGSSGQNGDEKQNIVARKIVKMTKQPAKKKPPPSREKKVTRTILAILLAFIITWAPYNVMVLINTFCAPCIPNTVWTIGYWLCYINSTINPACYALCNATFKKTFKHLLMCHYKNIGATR

M3 = M3 (Homo sapiens, UniProt P20309); experiment: M3 functional activation; format: cell-based
M4 = target: T4, M4 (Homo sapiens, UniProt P08173); experiment: M4 functional activation; format: cell-based
T4 sequence (P08173 1-479): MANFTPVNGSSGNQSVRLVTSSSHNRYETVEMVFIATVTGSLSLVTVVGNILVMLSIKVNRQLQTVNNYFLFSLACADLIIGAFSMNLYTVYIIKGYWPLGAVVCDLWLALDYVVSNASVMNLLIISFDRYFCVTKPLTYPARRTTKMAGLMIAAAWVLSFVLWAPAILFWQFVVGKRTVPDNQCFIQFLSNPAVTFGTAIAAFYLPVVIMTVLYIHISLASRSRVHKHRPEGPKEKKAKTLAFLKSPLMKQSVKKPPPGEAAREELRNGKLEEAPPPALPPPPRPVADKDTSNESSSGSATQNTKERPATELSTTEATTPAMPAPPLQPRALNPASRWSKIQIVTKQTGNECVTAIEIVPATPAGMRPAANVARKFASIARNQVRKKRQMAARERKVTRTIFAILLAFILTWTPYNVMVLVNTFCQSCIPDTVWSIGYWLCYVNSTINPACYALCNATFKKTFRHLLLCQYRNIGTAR

M5 = target: T5, M5 (Homo sapiens, UniProt P08912); experiment: M5 functional activation; format: cell-based
T5 sequence (P08912 1-532): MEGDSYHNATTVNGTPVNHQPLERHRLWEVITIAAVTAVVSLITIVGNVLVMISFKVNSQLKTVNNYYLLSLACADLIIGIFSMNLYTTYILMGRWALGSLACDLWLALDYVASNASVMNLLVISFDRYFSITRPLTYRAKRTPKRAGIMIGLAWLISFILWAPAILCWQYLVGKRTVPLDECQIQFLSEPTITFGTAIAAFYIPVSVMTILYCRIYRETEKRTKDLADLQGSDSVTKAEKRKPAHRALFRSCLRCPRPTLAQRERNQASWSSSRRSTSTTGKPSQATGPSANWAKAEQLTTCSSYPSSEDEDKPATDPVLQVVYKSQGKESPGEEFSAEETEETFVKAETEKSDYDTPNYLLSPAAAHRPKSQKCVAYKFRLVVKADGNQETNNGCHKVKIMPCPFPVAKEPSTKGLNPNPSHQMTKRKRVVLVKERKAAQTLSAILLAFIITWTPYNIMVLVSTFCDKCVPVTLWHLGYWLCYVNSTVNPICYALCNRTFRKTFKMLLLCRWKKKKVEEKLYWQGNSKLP

D2 [2] = target: T1, D2; conditions: cited from earlier work

T1 sequence (P14416 whole entry): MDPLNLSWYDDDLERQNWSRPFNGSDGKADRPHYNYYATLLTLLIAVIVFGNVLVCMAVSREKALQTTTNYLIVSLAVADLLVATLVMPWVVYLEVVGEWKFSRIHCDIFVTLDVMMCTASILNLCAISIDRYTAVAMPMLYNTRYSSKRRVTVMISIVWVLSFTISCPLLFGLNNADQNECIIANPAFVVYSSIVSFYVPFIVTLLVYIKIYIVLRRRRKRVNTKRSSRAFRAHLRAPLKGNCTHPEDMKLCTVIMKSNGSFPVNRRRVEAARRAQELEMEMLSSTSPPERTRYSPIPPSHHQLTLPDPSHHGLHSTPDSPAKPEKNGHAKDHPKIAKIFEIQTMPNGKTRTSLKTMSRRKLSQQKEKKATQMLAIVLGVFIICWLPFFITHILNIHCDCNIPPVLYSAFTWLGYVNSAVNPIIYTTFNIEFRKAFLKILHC
Chain of M3 (P20309 whole entry): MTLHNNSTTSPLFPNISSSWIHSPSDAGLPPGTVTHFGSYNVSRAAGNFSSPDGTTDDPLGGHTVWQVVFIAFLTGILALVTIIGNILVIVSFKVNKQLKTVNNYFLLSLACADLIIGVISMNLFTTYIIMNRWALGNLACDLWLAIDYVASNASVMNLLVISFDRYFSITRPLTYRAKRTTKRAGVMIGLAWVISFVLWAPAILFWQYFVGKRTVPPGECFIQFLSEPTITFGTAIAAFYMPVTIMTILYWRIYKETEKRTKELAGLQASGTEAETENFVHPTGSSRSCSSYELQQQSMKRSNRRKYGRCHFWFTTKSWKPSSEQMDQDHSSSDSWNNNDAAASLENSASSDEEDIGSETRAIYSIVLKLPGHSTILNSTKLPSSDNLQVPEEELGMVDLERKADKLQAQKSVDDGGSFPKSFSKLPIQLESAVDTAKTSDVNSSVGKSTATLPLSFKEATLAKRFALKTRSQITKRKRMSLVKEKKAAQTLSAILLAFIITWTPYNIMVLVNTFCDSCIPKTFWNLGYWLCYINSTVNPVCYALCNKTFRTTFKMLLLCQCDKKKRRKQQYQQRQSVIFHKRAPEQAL

Compound: O=c1[nH]c2ccc(F)cc2n1C1CCN(C2CCN(S(=O)(=O)c3ccccc3)CC2)CC1 [14c]
- inhibition of D2 (D2 [1]; at concentrations up to 10 μM): did not inhibit

Compound: O=C(Nc1cccc(SC(F)(F)F)c1)N1CCC(N2CCC(n3c(=O)[nH]c4ccccc43)CC2)CC1 [10i]
- M1 activation, single point screen (M1): activated M1

Compound: O=c1[nH]c2ccccc2n1C1CCN(C2CCN(S(=O)(=O)c3ccccc3)CC2)CC1 [9c]
- EC50 (M2): > 30000 nM
- EC50 (M3): > 30000 nM
- EC50 (M4): > 30000 nM
- EC50 (M5): > 30000 nM
- inhibition at 10 µM (D2 [1]; read-out: inhibition of D2): ~10%
- M1 activation, single point screen (M1): activated M1

Compound: O=c1[nH]c2ccccc2n1C1CCN(C2CCN(Cc3ccccc3C(F)(F)F)CC2)CC1 [compound 2]
- D2 inhibitory activity (D2 [2]): no D2 inhibitory activity

Compound: CCOC(=O)N1CCC(N2CCC(n3c(=O)[nH]c4ccccc43)CC2)CC1 [ethyl carbamate congener]
- % CCh Max at M2 (M2): 80.6%
- EC50 (M2; read-out: M2 EC50): 11.9 nM
- % CCh Max at M4 (M4): 96.9%
- EC50 (M4; read-out: M4 EC50): 9.1 nM
- % CCh Max at M5 (M5): 50.8%
- EC50 (M5; read-out: M5 EC50): 34.3 nM
